Results reported in paper PMC11539218 (Antimicrobial Agents and Chemotherapy, 2024).

Key:
Type in all cases: cell-based, Leishmania (L.) infantum
[1] = test system: L. (L.) infantum promastigotes; details: compound 1 169.2 µM, sodium azide 10 mM; 2 and 4 h; H2DCFDA; vs untreated
Experimental: Promastigotes (2 × 10^6/well) were treated with compound 1 (169.2 µM) for 2 and 4 h, at 24°C. Later, H2DCFDA (5 µM) was added and the parasites were incubated for 15 min. Fluorescence was monitored in a spectrofluorometer with excitation and emission wavelengths of 485 and 535 nm, respectively ([19]). Sodium azide (10 mM) was employed as positive control and untreated parasites as negative control.

[2] = test system: L. (L.) infantum promastigotes; experiment: Intracellular Ca2+ (Fluo-4 AM); details: 169.2 µM, from 20 min up to 4 h, vs untreated
Experimental: Promastigotes (2 × 10^6/well) were pretreated with Fluo-4 AM (5 µM) in PBS, for 1 h at 24°C. Then, parasites were treated with compound 1 (169.2 µM). Fluorescence was measured every 20 min up to 4 h in a spectrofluorometer, with excitation and emission wavelengths of 485 nm and 535 nm, respectively ([21]). Triton X-100 0.5% (vol/vol) was employed as positive control and untreated parasites as negative control.

[3] = test system: L. (L.) infantum promastigotes; experiment: Acidocalcisomes alkalinization (acridine orange); details: compound 1 169.2 µM, nigericin 4 µM; after 20 min; vs untreated
Experimental: Promastigotes (2 × 10^6/well) were pretreated with acridine orange (4 µM) in PBS, for 5 min at 24°C. The parasites were treated with compound 1 (169.2 µM). Fluorescence was monitored every 20 min up to 4 h in a spectrofluorometer, with excitation and emission wavelengths of 485 and 535 nm, respectively ([22]). Nigericin (4 µM) was employed as positive control and untreated parasites as negative control ([23]).

C=CCc1cc(OC)c(OCc2ccc(OC)cc2)c(Oc2ccc(CN3CCOCC3)cc2OC)c1 [compound 1, 4-(4-(5-allyl-3-methoxy-2-((4-methoxybenzyl)oxy)phenoxy)-3-methoxybenzyl)morpholine]
ROS levels [1]: significant reduction
intracellular Ca2+ level [2]: fast and increased Ca^2+ level
acridine orange fluorescence levels (acidocalcisomes) [3]: significantly higher
